Experimental data: PMC9875028, “Identification and virtual screening of novel anti-inflammatory peptides from broccoli fermented by Lactobacillus strains” (Frontiers in Nutrition, 2023)
Entries after “also recorded” stand apart in the source; their conditions may differ.

Legend:
TNF-α [1] = test: TNF-α secretion by LPS-stimulated RAW264.7 cells (ELISA); assay type: cell-based, Mouse; conditions: for inhibition rate on TNF-α / effect on TNF-α production (in words): LPS 200 ng/mL; for inhibition rate on TNF-α: mean ± SD, n = 3; for effect on TNF-α production (in words): synthetic peptides 25, 50, 100 μM
Procedure: (§1) RAW264.7 cells were cultured in DMEM medium containing 10% FBS and 1% double antibody at 37°C and 5% CO2 incubator. CCK-8 reagent was used for cell viability assay.
(§2) RAW264.7 cells (3 × 10^6 cells / mL) seeded into 12-well plates were pretreated with various concentrations of broccoli hydrolyzates or synthetic peptides for 2 h before stimulation by LPS (200 ng/mL). NO was determined using Griess reagent. TNF-α and IL-6 were measured by ELISA kits according to the manufacturer's instructions. More details of the assay are shown in Supplementary Table S2.

IL-6 [2] = test system: IL-6; parameters: method as in doi:10.1016/j.jff.2020.104044; conditions: sturgeon protein peptide; cited from earlier work
TNF-α [3] = test system: TNF-α; parameters: method as in doi:10.1016/j.jff.2020.104044; conditions: sturgeon protein peptide; cited from earlier work
NO = NO release from LPS-stimulated RAW264.7 cells (Griess reagent); assay type: cell-based, Mouse; conditions: LPS 200 ng/mL; for inhibition rate of NO release: mean ± SD, n = 3
Procedure: as §1, §2

IL-6 [4] = test: IL-6 secretion by LPS-stimulated RAW264.7 cells (ELISA); assay type: cell-based, Mouse; conditions: for effect on IL-6 production (in words): synthetic peptides 25, 50, 100 μM
Procedure: as §1, §2

[5] = peptide concentration exceeding 25 μM

## CKVWPPLH
TNF-α [1]; synthetic peptide 100 μM
  inhibition rate on TNF-α: 73.83 ± 0.81%
TNF-α [1]
  effect on TNF-α production (in words): dose-dependently decreased TNF-α

## KIWHHFF
IL-6 [2]
  inhibition of LPS-induced IL-6 secretion (in words): inhibited LPS-induced IL-6 secretion only at the lowest concentration
TNF-α [3]
  TNF-α inhibitory activity (in words): did not exhibit TNF-α inhibitory activity

## SIWYGPDRP [synthetic peptide identified from broccoli hydrolysate]
NO; synthetic peptide 25 μM
  inhibition rate of NO release: 52.32 ± 1.48%

## GDRW [synthetic peptide identified from broccoli hydrolysate]
IL-6 [4]; LPS 200 ng/mL
  effect on IL-6 production (in words): significantly inhibited
TNF-α [1]
  effect on TNF-α production (in words): significantly inhibited

## KASFAFAGL [synthetic peptide identified from broccoli hydrolysate]
IL-6 [4]; [5]
  inhibitory activity on IL-6 secretion (in words): did not show inhibitory activity
IL-6 [4]; synthetic peptide 25 μM (low dose), LPS 200 ng/mL, mean ± SD, n = 3
  inhibition rate on IL-6: 29.84 ± 0.63%
TNF-α [1]; [5]
  inhibitory activity on TNF-α secretion (in words): did not show inhibitory activity
TNF-α [1]; synthetic peptide 25 μM (low dose)
  inhibition rate on TNF-α: 43.59 ± 0.27%

## FGDFNPGGRL [synthetic peptide identified from broccoli hydrolysate]
IL-6 [4]; LPS 200 ng/mL
  effect on IL-6 production (in words): only inhibited IL-6 at a concentration of 50 μM
TNF-α [1]; synthetic peptide 100 μM
  inhibition rate on TNF-α: 68.44 ± 5.63%
TNF-α [1]
  effect on TNF-α production (in words): dose-dependently decreased TNF-α

## DGRYW [synthetic peptide identified from broccoli hydrolysate]
NO; synthetic peptide 100 μM
  inhibition rate of NO release: 53.94 ± 2.49%
NO; synthetic peptides 25, 50, 100 μM
  effect on NO secretion (in words): reduced NO content in inflammatory cells in a dose-dependent manner

## ADLAHLPF [synthetic peptide identified from broccoli hydrolysate]
IL-6 [4]; LPS 200 ng/mL
  effect on IL-6 production (in words): significantly inhibited
TNF-α [1]; synthetic peptide 100 μM
  inhibition rate on TNF-α: 73.19 ± 5.31%
TNF-α [1]
  effect on TNF-α production (in words): significantly inhibited; also recorded: dose-dependently decreased TNF-α
